From US8211463B2, “Use of glycolipids as adjuvants” (Helmholtz-Zentrum Fuer Infektionsforschung GmbH, priority 2006, dated 2012)
Entries after “also recorded” stand apart in the source; their conditions may differ.

What was measured:
[1] = Tolerability of co-administered glycolipids: body weight and behaviour tested daily; type: in vivo
Method: The body weight and the behaviour of the animals were tested daily. The Balb/c mice were immunized by the mucosal (i.n.) or parenteral (s.c.) route with β-Gal alone or together with glycolipids 1, 5 and 6 three times at 2-wk intervals (day 1, 14 and 28). 10 days after the final immunization (day 38), the immunized mice were sacrificed.
Experimental protocol: six-eight weeks-old female BALB/c (H-2d) mice were purchased from Harlan Winkelmann GmbH (Borchen, Germany) and treated in accordance with local and European Community guidelines. Groups of 5 mice each were immunized on day 01, 14 and 28 with 30 μg of β-Gal (Boehringer, Mannheim, Germany), alone or with 10 μg of glycolipids 1, 5, or 6, respectively, see FIG. 2. For intranasal (i.n.) immunization, 10 μl were applied to each naris, whereas for the s.c. injection β-Gal with or without glycolipids 1, 5 or 6, respectively, was resuspended in a volume of 50 μl PBS per animal. Serum samples were collected at day 38 after immunization and stored at −20° C. prior to determination of β-Gal-specific antibodies. 96-well Nunc-Immuno MaxiSorp assay plates (Nunc, Roskilde, Denmark) were coated with 100 μl of β-Gal (Boehringer, Mannheim, Germany) at 5 μg/ml in 0.05 M carbonate buffer (pH 8.2) per well. Serial two-fold dilutions of sera or lavages in PBS with 1% BSA and 0.05% Tween 20 were added (100 μl/well), and plates incubated for 16 h at 37° C. After washing, biotinylated γ-chain-specific goat anti-mouse IgG (Sigma Chemie, Deisenhofen, Germany) was added, and plates were incubated for an additional 1 h at 37° C. After four washes, 100 μl of peroxidase-conjugated streptavidin (Pharmingen) was added to cells and plates incubated at 37° C. for 30 min. After four washes, reactions were developed with ABTS in 0.1 M citrate-phosphate buffer (pH 4.35) containing 0.01% H2O2.

[2] = system: IFNγ, IL-2 and IL-4 secreting splenocytes; assay: Elispot of cytokine-secreting splenocytes (IFNγ, IL-2, IL-4); type: in vivo, Balb/c mice; conditions: for spot forming units (SFU) secreting IFNγ / spot forming units (SFU) secreting IFNγ / cytokine secretion: i.n.; for spot forming units (SFU) secreting IFNγ / secretion of IFNγ, IL-2 and IL-4 (SFU) vs β-Gal alone: 10 μg glycolipid; for spot forming units (SFU) secreting IFNγ: MHC class I restricted β-Gal peptide 2 μg/ml, 24 h; for spot forming units (SFU) secreting IFNγ / cytokine secretion / secretion of IFNγ, IL-2 and IL-4 (SFU) vs control animals: 20 up to 30 μg glycolipid; for secretion of IFNγ, IL-2 and IL-4 (SFU) vs β-Gal alone / secretion of IFNγ, IL-2 and IL-4 (SFU) vs control animals: s.c. (parenteral)
Method: Co-administration of β-Gal with 10 μg glycolipids 1, 5 and 6 induced a strong cellular immune responses and enhanced levels of IFNγ, IL-2 and IL-4 in response to enhanced concentration of the β-Gal antigen in Balb/c mice. Balb/c mice were immunized by the i.n. or s.c. route with β-Gal alone or together with glycolipids 1, 5 and 6 three times at 2-wk intervals. 10 days after the final immunization, the immunized mice were sacrificed. Splenocytes of mice immunized by the i.n. (FIG. 12) and s.c. (FIG. 13) route were collected and cultured with different concentrations of the antigen. A total of 5×10^6 cells/ml spleen cells were cultured with 2 μg/ml of the MHC cI.I restricted β-Gal peptide (IFNγ) for 24 h and the β-Gal-Protein (IL-2 and 4) for 48 h. IFNγ producing CD8+ T cells were analyzed using BD Elispot kit according to the manufacturer's instructions. […] Bars represent Spot forming units of 10^6 splenocytes with subtracted background mean SFU±SE in each group. Each group consists of five mice. Data are representative of three separate experiments.
Co-administration of β-Gal with 20 up to 30 μg glycolipids 5 and 6 induced strong cellular immune responses and enhanced levels of IFNγ, IL-2 and IL-4 in response to enhanced concentration of the β-Gal antigen in Balb/c mice. Balb/c mice were immunized by the i.n. or s.c. route with β-Gal alone or together with glycolipids 5 and 6 three times at 2-wk intervals. 10 days after the final immunization, the immunized mice were sacrificed. Splenocytes of mice immunized by the i.n. (FIG. 14) and s.c. (FIG. 15) route were collected and cultured with different concentrations of. A total of 5×10^6 cells/ml spleen cells were cultured with 2 μg/ml of the MHC class I restricted β-Gal peptide (IFNγ) for 24 h and the β-Gal-Protein (IL-2 and 4) for 48 h. IFNγ producing CD8+ T cells were analyzed using BD Elispot kit according to the manufacturer's instructions. […] Bars represent Spot forming units of 10^6 splenocytes with subtracted background mean SFU±SEM in each group. Each group consists of five mice. Data are representative of three separate experiments.
Experimental protocol: Spleens from vaccinated mice were removed and pooled for analysis of cellular immune responses. The protocol for vaccination was identical to the protocol described in Example 2. Cells were grown in RPMI 1640 supplemented with 10% fetal calf serum, 100 U/ml of penicillin, 50 μg/ml of streptomycin, 5×10^−5 M 2-mercaptoethanol and 1 mM L-glutamine (GIBCO BRL, Karlsruhe, Germany) and maintained at 37° C. in a humidified 5% CO2 atmosphere. Lymph node and spleen cell suspensions were adjusted to 5×10^6 cells/ml in complete medium, cells were seeded with 100 μl per well in a flat-bottomed 96-well microtiter plate (Nunc) and plates were incubated for 4 days in the presence of different concentrations of soluble β-Gal.
Splenocytes of mice immunized by the i.n. (FIG. 12) and s.c. (FIG. 13) route were collected and cultured with different concentrations of the antigen. A total of 5×10^6 cells/ml spleen cells were cultured with 2 μg/ml of the MHC cI.I restricted β-Gal peptide (IFNγ) for 24 h and the β-Gal-Protein (IL-2 and 4) for 48 h. IFNγ producing CD8+ T cells were analyzed using BD Elispot kit according to the manufacturer's instructions. […] Bars represent Spot forming units of 10^6 splenocytes with subtracted background mean SFU±SE in each group. Each group consists of five mice. Data are representative of three separate experiments.

[3] = co-administered with 30 μg β-Gal, i.n. and s.c., day 1, 14 and 28

SMILES | toxic side effects (body weight and behaviour) [1, 3] | spot forming units (SFU) secreting IFNγ [2] | spot forming units (SFU) secreting IFNγ / cytokine secretion [2] | secretion of IFNγ, IL-2 and IL-4 (SFU) vs β-Gal alone [2] | secretion of IFNγ, IL-2 and IL-4 (SFU) vs control animals [2] | toxic side effects (body weight and behaviour) ([1]; mouse, in vivo, sc)
CCCCCCCCCCCCCCOCC(COCCCCCCCCCCCCCC)O[C@@H]1O[C@H](CO[C@H]2O[C@H](CO)[C@H](O)[C@H](O)[C@H]2O)[C@@H](O)[C@H](O)[C@H]1O [glycolipid 6, 1,3-di-O-tetradecyl-2-O-[6′-O-(α-D-galactopyranosyl)-β-D-glucopyranosyl]-sn-glycerol] | no toxic side effects; also recorded: no toxic side effects or changes in their behaviour | only a weak secretion | reduced cytokine secretion | only weak enhanced secretion | only a minor effect | –
CCCCCCCC/C=C\CCCCCCCCOCC(COCCCCCCCC/C=C\CCCCCCCC)O[C@@H]1O[C@H](CO)[C@@H](O[C@H]2O[C@H](CO)[C@@H](O)[C@H](O)[C@H]2O)[C@H](O)[C@H]1O (relative stereo) [glycolipid 1, 1,3-Di-O[cis-9-octadecenyl]-2-O-[4′-O-(α-D-glycopyranosyl)-β-D-glycopyranosyl]-sn-glycerol] | – | only a weak secretion | – | only weak enhanced secretion | – | no toxic side effects; also recorded: no toxic side effects or changes in their behaviour
CCCCCCCCCCCCCCOCC(COCCCCCCCCCCCCCC)O[C@@H]1O[C@H](CO)[C@@H](O[C@H]2O[C@H](CO)[C@@H](O)[C@H](O)[C@H]2O)[C@H](O)[C@H]1O [glycolipid 5, 1,3-Di-O-tetradecyl-2-O-[4′-O-(α-D-glucopyranosyl)-β-D-glucopyranosyl]-sn-glycerol] | no toxic side effects; also recorded: no toxic side effects or changes in their behaviour | enhanced expression | enhanced expression | only weak enhanced secretion | only a minor effect | –
